Active and inactive are the calls of the source.
How the values were obtained:
[1] = growth inhibition of yeast DHODH-expressing 3D7 parasites – SYBR Green, dry powder samples, dose response (AID 1159570); format: functional, cell-based;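 note: parasite growth measured after 72 hours of compound exposure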
[2] = toxicity to human HepG2 hepatoma cells – cell-based, plate reader, dry powder samples, cytotoxicity control, dose response (AID 1159569); format: functional;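 note: inhibitor potency with signal falling toward the positive control level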
[3] = P. falciparum Dd2 growth inhibitors, dose response, SYBR Green, cherry-picked samples (AID 1159567); format: functional, cell-based
[4] = Dd2 malaria parasite growth inhibition potency – SYBR Green, dry powder samples, dose response (AID 1159566); format: functional, cell-based;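 note: potency for growth inhibition with lower SYBR green DNA signal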
[5] = growth inhibition of PfATP4-mutant resistant parasites – NITD609-resistant line, SYBR Green, dry powder, dose response (AID 1159571); format: functional, cell-based;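 note: parasites synchronized at ring stage by sorbitol before testing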
[6] = viability inhibitors of stage V gametocytes – luminescence, dose response (AID 1117278); format: functional, cell-based;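 note: gametocytes exposed to compound for 24 hours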
[7] = viability loss in human Jurkat cells – cell-based, luminescence, cytotoxicity control for P. falciparum gametocyte viability project, dose response (AID 1117277); format: functional;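 note: potency reflects loss of cellular ATP meaning fewer viable cells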
[8] = HGIII-sPLA2 enzyme inhibition potency – biochemical, QFRET, IC50, dose response (AID 743457);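 note: green fluorescence rise as the enzyme cleaves BODIPY PC-A2 in liposomes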
[9] = activation of miR-122 Renilla sensor silencing – cell-based, Huh7 psiCHECK-miR122, Renilla luciferase, cherry-picked, dose response (AID 651956); format: functional;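 note: huh7 hepatoma cells stably carrying a psiCHECK-2 miR-122 sensor plasmid; renilla luciferase signal reporting endogenous miR-122 activity after 48 h compound exposure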
[10] = general mammalian cell viability loss – inhibitor set, cherry-pick, set 2, cytotoxicity control for miR-122 modulator project, dose response (AID 720697); format: functional, cell-based
[11] = general mammalian cell viability loss – activator set, cherry-pick, cytotoxicity control for miR-122 modulator project, dose response (AID 720690); format: functional, cell-based;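 note: HEK293T human cells scored for general mammalian cytotoxicity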
BJ [12] = assay: BJ-TERT fibroblast viability loss – cell-based, RAS-independent, luminescence, dose response (AID 1933); format: functional; conditions: Homo sapiens
BJ [13] = assay: cells; format: functional, cell-based; conditions: Homo sapiens
BJ [14] = assay: BJ-TERT-LT-ST fibroblast viability loss – cell-based, RAS-independent, luminescence, dose response (AID 1935); format: functional; conditions: Homo sapiens;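 note: BJ fibroblasts immortalized with TERT plus LT and ST oncogenes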
[15] = DRD fibroblast viability loss – cell-based, non-viral oncogenic, luminescence, dose response (AID 1934); format: functional; conditions: Homo sapiens
BJ [16] = assay: growth inhibition of engineered Ras-driven BJ cells – cell-based, alamar blue fluorescence, cherrypicked samples, dose response (AID 2631); format: functional; conditions: Homo sapiens;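 note: confirmatory dose-response assay in RAS-dependent BJ fibroblasts engineered with TERT, LT and ST, with cytotoxicity read by fluorescence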
Fatty acid synthase [17] = target: T1, Fatty acid synthase (Homo sapiens, UniProt P49327); assay: inhibition of human FAS-TE enzyme activity – biochemical, endpoint fluorescence intensity, uHTS hits, dose response (AID 624327); format: functional;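 note: fluorescence from hydrolysis of an O-methyl fluorescein acyl ester substrate by the enzyme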
T1 sequence (P49327 whole entry): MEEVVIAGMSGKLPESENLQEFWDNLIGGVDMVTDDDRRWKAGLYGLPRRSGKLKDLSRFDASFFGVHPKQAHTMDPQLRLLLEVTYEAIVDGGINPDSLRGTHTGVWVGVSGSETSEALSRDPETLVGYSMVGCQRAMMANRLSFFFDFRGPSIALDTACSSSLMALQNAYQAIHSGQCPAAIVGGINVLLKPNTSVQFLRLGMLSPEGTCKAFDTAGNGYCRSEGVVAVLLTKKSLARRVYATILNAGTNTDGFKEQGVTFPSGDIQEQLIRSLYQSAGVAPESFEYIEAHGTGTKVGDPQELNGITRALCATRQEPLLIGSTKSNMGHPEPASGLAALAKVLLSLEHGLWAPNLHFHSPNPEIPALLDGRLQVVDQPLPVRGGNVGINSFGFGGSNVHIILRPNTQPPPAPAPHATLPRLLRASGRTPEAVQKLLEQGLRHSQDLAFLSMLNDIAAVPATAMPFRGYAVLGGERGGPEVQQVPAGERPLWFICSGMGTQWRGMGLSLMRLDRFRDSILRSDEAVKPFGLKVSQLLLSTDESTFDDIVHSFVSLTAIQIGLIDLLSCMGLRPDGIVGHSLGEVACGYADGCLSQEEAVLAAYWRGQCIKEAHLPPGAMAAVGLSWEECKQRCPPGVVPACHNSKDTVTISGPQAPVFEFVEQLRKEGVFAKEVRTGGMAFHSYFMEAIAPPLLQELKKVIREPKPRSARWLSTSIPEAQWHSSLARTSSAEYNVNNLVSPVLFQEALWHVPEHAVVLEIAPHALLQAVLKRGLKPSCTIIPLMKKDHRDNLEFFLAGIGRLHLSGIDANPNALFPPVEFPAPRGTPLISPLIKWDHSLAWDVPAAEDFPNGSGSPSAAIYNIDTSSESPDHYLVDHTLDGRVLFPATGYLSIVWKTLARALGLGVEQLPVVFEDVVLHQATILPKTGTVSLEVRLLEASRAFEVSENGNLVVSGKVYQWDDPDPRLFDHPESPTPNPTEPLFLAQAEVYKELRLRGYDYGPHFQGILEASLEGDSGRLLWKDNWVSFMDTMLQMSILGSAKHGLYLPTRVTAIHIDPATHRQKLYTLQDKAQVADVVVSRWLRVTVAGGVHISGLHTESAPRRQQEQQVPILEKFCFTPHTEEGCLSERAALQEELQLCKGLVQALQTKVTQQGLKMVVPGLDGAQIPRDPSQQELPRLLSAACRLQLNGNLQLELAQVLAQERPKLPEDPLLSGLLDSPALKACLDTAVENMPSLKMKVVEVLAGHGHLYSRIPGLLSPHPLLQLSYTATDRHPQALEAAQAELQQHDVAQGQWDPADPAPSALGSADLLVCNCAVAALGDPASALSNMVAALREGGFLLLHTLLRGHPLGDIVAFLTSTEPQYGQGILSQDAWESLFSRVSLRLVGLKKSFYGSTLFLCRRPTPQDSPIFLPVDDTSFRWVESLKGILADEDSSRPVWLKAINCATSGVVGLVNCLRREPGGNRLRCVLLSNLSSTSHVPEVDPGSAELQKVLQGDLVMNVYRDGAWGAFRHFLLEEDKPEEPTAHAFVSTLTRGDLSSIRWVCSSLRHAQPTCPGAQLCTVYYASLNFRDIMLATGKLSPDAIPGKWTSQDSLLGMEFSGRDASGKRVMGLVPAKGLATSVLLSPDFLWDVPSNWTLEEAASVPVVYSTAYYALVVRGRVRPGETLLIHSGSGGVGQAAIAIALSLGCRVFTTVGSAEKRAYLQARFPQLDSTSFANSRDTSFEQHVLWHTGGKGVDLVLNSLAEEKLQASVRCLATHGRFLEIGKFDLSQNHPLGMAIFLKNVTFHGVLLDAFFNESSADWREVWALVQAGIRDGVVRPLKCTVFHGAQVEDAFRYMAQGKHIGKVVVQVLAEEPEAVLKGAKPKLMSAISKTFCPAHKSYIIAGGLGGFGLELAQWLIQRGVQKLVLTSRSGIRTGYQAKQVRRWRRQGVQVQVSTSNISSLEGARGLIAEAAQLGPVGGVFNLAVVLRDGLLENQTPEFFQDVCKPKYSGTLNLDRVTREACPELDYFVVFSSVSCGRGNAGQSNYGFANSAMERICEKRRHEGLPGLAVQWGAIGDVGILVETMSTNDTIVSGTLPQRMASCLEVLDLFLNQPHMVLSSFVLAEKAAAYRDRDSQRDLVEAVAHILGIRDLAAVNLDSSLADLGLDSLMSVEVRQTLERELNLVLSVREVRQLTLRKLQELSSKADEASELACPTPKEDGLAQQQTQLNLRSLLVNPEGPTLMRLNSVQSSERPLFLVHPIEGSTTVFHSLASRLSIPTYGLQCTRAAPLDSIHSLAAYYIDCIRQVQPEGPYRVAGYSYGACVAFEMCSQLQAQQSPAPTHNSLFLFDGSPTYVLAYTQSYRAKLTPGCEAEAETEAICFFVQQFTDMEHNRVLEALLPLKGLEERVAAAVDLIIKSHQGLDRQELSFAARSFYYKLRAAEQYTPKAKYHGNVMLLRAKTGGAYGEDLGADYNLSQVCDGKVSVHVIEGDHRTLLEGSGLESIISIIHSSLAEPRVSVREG

Fatty acid synthase [18] = target: T1, Fatty acid synthase; assay: inhibition of human FAS-TE enzyme activity – biochemical, kinetic fluorescence intensity, dose response (AID 624326); format: functional;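 note: rate of fluorescence rise from hydrolysis of a fluorogenic O-methyl fluorescein ester substrate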
[19] = target: T2, Rac GTPase-activating protein 1 (Homo sapiens, UniProt Q9H0H5); assay: blockers of MgcRacGAP-driven Rac1 GTP hydrolysis – biochemical, ADP Hunter fluorescence, primary and confirmatory, confirmation (AID 624330); format: functional
T2 sequence (Q9H0H5 whole entry): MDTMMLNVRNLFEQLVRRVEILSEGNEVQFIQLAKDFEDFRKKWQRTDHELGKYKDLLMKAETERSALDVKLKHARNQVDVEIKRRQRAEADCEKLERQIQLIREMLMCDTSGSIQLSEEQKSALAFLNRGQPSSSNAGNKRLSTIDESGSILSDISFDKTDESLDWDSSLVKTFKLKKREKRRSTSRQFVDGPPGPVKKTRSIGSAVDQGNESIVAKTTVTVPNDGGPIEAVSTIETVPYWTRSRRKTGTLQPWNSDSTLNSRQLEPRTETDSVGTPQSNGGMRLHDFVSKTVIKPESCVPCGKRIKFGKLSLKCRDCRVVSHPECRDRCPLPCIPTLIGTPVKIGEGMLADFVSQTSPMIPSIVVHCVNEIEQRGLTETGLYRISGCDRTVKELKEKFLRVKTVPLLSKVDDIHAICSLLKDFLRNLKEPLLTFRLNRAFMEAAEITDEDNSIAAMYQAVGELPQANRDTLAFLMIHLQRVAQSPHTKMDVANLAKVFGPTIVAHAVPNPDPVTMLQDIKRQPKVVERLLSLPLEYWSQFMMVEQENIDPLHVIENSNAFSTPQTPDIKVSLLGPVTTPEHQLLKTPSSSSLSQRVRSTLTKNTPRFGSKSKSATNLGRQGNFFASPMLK

**Q.** For `COc1ccc2c3c(n(C)c2c1)[C@@H](CO)N(Cc1ccc(Cl)cc1)CC31CCN(CC2CC2)CC1`, which AC50 [1] is on record?
**A.** Its AC50 is 2.64 µM (active).

**Q.** What about the AC50 [2] of the same molecule?
**A.** Its AC50 is 22 µM (active).

**Q.** What about the AC50 [3] of the same molecule?
**A.** The AC50 was 1.86 µM (active).

**Q.** What about the AC50 [4] of the same molecule?
**A.** The AC50 was 1.67 µM (active).

**Q.** What about the AC50 [5] of the same molecule?
**A.** Its AC50 is 1.7 µM (active).

**Q.** With `COc1cc(C(=O)N2CCC(n3cnc4cc(F)ccc43)CC2)cc(OC)c1OC` as the molecule, how does the IC50 [6] read?
**A.** The IC50 was > 109 µM (inactive).

**Q.** And the IC50 [7]?
**A.** The IC50 was > 83.3 µM (inactive).

**Q.** With `Sc1nnc(COc2ccc(Cl)cc2)n1-c1ccccc1` as the molecule, how does the IC50 [8] read?
**A.** Its IC50 is > 122 µM (inactive).

**Q.** Which AC50 [9] does the source give for `CN1C(=O)c2cc(NC(=O)c3ccc(C(F)(F)F)cc3)ccc2OC[C@@H]2O[C@H](CC(=O)NCc3ccc4c(c3)OCO4)CC[C@@H]21` here?
**A.** Its AC50 is 6.22 µM (active).

**Q.** What about the AC50 [10] of the same molecule?
**A.** The AC50 was 28 µM (active).

**Q.** And the AC50 [11]?
**A.** Its AC50 is 12.6 µM (active).

**Q.** Which EC50 (BJ [12]) does the source give for `O=C(NC(Nc1ncc(S(=O)(=O)c2ccc([N+](=O)[O-])cc2)s1)(C(F)(F)F)C(F)(F)F)c1ccc(Cl)cc1` here?
**A.** Its EC50 is 11 µM (inconclusive).

**Q.** And the EC50 (BJ [13])?
**A.** Its EC50 is 52.1 µM (active).

**Q.** And the EC50 (BJ [14])?
**A.** The EC50 was 20.1 µM (active).

**Q.** What about the EC50 [15] of the same molecule?
**A.** The EC50 was 12.4 µM (active).

**Q.** What about the EC50 (BJ [16]) of the same molecule?
**A.** Its EC50 is 83.6 µM (active).

**Q.** What about the AC50 [9] of the same molecule?
**A.** Its AC50 is 2.35 µM (active).

**Q.** What about the IC50 (Fatty acid synthase [17]) of the same molecule?
**A.** The IC50 was 9.12 µM (active).

**Q.** What about the IC50 (Fatty acid synthase [18]) of the same molecule?
**A.** Its IC50 is 7.87 µM (active).

**Q.** And the AC50 [10]?
**A.** The AC50 was 9.01 µM (active).

**Q.** What about the AC50 [11] of the same molecule?
**A.** Its AC50 is 4.29 µM (active).

**Q.** With `Cc1ccc(Nc2n[nH]c(=S)s2)cc1` as the molecule, how does the IC50 [19] read?
**A.** Its IC50 is 72.2 µM (active).

**Q.** What about the IC50 [8] of the same molecule?
**A.** The IC50 was > 122 µM (inactive).

**Q.** For `COc1ccc(N=Nc2nc(-c3ccccc3)c(-c3ccccc3)[nH]2)cc1`, which IC50 [8] is on record?
**A.** The IC50 was > 122 µM (inactive).

Source: ChEMBL document CHEMBL1201862, “PubChem BioAssay data set” (2004)
